Assays:
HeLa cells [1] = assay: Flow cytometry (FACS) DNA content / cell cycle profile; assay type: cell-based, human; conditions: 24 h
Description: Adherent HeLa cells were routinely passaged and maintained in D-MEM medium supplemented with 10% Fetal Bovine Serum (FBS), 1% Penicillin/Streptomycin and 2 mM L-Glutamine. The cells were cultured at 37 °C; 5% CO2. hTERT-RPE1 cells were grown in DMEM with 10% fetal bovine serum. HeLa cells constitutively expressing green fluorescent protein-conjugated Histone H2B and mRed fluorescent protein-conjugated α-tubulin were maintained in D-MEM medium supplemented with 10% Fetal Bovine Serum (FBS), 1% Penicillin/Streptomycin, 2 mM L-Glutamine and 0.5 µg/mL Puromycin and cultured at 37 °C; 5% CO2.
After treatment, FACS analysis was performed on a BD FACSCanto™ Flow Cytometer (Cat.No. 335860 BD Biosciences) using FACSDiva Software. Cells were trypsinized, washed wish PBS and fixed overnight in EtOH (-20°C). After washing with PBS, cells were stained with a propidium iodide solution (PI; 15 µg/mL)/ RNase A (30 µg/mL) for 30 min at 37 °C. RNase was added to avoid signals caused by the binding of PI to RNA.
We first examined by flow cytometry the cell cycle profiles of HeLa cells incubated in medium containing increasing concentrations of any of (A) or (C) for 24 h.

[2] = test system: histone H3 phosphorylation on Ser 10; assay: Western Blot analysis of histone H3 phosphorylation in mitotic cells; assay type: cell-based, human; conditions: mitotic HeLa cells synchronized with nocodazole, treated 20 h, any of the concentrations tested
Description: For Western Blot analysis of HH3 phosphorylation levels in mitosis HeLa cells were arrested with 2 mM thymidine for 18 h, released into fresh medium for 6 h, and blocked with 2 µM nocodazole for 16 h. DMSO or the different compounds were added 1 h after thymidine release. Mitotic cells were shaken off and lysed in 50 mM Tris pH 6,8- 2% SDS. Samples were sonicated and boiled. 30 µg protein extract (as determined by Bradford assay, Bio-Rad protein assay) was loaded on SDS-PAGE, transferred to a nitrocellulose membrane and blotted with anti-phospho HH3 (Upstate), anti-Aurora A and anti-tubulin antibodies (Sigma, DM1A).

[3] = test system: H2B-GFP/mRFP-αTubulin HeLa cells; assay: Time-lapse video microscopy of live cells; assay type: cell-based, human; conditions: 2 µM
Description: Upon treatment, living cells were added to a humidified chamber at 37 °C with 5% CO2 attached to a Carl Zeiss microscope (SN:3834000366) equipped with a Hamamatsu EM-CCD digital camera, controlled by AxioVision 4.6 software. Cells were imaged every 3 or 4.5 min (depending on the number of fields filmed) for over 16 h-24 h. Images were taken with the AxioCam MRm 426205 objective and processed using AxioVision software.
The increase in the proportion of cells with more than 2n DNA content could be due to several causes: several cycles of DNA replication or cytokinesis errors as shown for cells treated with other Aurora inhibitors. To determine the primary cause for the phenotype produced by (C) and examine whether (A) may interfere with mitosis, we examined live cells by time-lapse video microscopy. To visualize DNA and microtubules we used a HeLa stable cell line expressing H2B-GFP and mRFP-αTubulin. […] The resulting time-lapse images were used to determine the following parameters: (1) the percentage of cell death among non dividing cells (Figure 4A), (2) the percentage of cells entering mitosis (Figure 4B), (3) the outcome of mitosis: normal division (cell division), return to interphase without chromatin segregation and without dividing (no division), cytokinesis failure (division errors), cell death without resolving mitosis (cell death) (Figure 4C), and (4) the length of time spent in mitosis (TIM), defined as the interval between DNA condensation and anaphase resolution (Figure 4D).

HeLa cells [4] = assay: Fixed cell analysis of mitotic phenotypes (fluorescence / immunofluorescence); assay type: cell-based, human; conditions: 2 µM, 24 h
Description: For fixed cell analysis, HeLa or H2B-GFP/mRFP-αTubulin HeLa cells were grown on glass coverslips and treated as described above. Cells were fixed in ice cold methanol and mounted in Mowiol. Alternatively, non fluorescent HeLa were treated and subjected to immunofluorescence with anti-tubulin antibodies (Sigma, DM1A) and Hoechst to stain the DNA. Cells were observed on a Leica DM16000B microscope with the HCX PL APO CS 63x 1.4 objective. Images were taken with a Leica DFC 350FX camera, controlled by Leica Application Suit (LAS-AF 6000) software and processed with Adobe Photoshop.
To get a better idea about the defects causing cell division failure in cells treated with (C), we examined fixed cells to better visualize the chromosomes and the microtubules. […] In parallel, standard HeLa cells were treated in the same way. The cells were fixed and processed for immunofluorescence with anti-tubulin antibodies to visualize the microtubules and Hoechst to stain the DNA.

hTERT-RPE1 cells = assay: Cilia disassembly assay; assay type: cell-based; conditions: pretreatment 1-2 µM, serum stimulation after 48 h starvation
Description: Cilia assembly and disassembly assays were performed as described in Pugacheva et al., Cell 2007, 129, 1351-1363. […] For analysis of cilia disassembly, cilia were assembled by 48 h starvation in Opti-MEM, and disassembled by incubation in DMEM-10% serum. Cells were fixed after 2 and 4 h. […] To visualize the centrosomes and the cilia, fixed cells were immunostained with anti-γ-tubulin (Sigma GTU88) and anti-acetylated-tubulin (Sigma), and DNA was stained with Hoechst.

SMILES: COc1cc2c(Nc3ccc(NC(=O)c4ccccc4)cc3)ncnc2cc1OCCCN1CCOCC1 [ZM1, reference compound]
- % of cells 2<n<4 (HeLa cells [1]; 2µM, HeLa cells): 2.8%
- % of cells 2n (HeLa cells [1]; 2µM, HeLa cells): 1.2%
- % of cells 4n (HeLa cells [1]; 2µM, HeLa cells): 51.1%
- % of cells <2n (HeLa cells [1]; 2µM, HeLa cells): 3.0%
- % of cells >4n (HeLa cells [1]; 2µM, HeLa cells): 43.5%
- effect on DNA content / distribution of cells in the cell cycle stages (HeLa cells [1]; ZM1 2 µM, (A) and (C) increasing concentrations): increased the proportion of cells with 4n and 8n DNA content
- HH3-Ser10 phosphorylation [2]: strongly reduced
- time spent in mitosis (TIM) [3]: 306 min
- number of cells entering mitosis ([3]; 16 h-24 h): decreased by half
- cells that de-condensed their DNA and went back to interphase without chromosome segregation ([3]; of cells in mitosis): 76%
- mitotic phenotype of fixed cells (HeLa cells [4]): strong increase of the number of mitotic cells showing chromosome alignment defects in metaphase
- cilia disassembly (hTERT-RPE1 cells): did not have any effect

Source: patent EP2241565A1, “Aurora kinase inhibitors compounds” (Universität Leipzig, priority 2009, dated 2010)
